Laboratory results published in US7122569B2, “Ethylene glycol esters as photoactive agents” (priority 1997, dated 2006).

Assays:
[1] = system: L1210 cells; experiment: Uptake of photosensitizer by L1210 cells (fluorescence of cell lysates); assay type: cell-based, murine; conditions: 3 μg/ml, 10% fetal bovine serum
Procedure: BPD-MA or B-EA6 were incubated at 3 μg/ml in the presence of 10% fetal bovine serum with 10^7/mL of L1210 cells, a murine leukemia cell line. Intracellular content of the photosensitizers was measured by fluorescence of cell lysates at various times. […] The time course of uptake is shown in FIG. 2 as a percentage of cell content at 60 min by which time uptake had reached a maximum in both cases. As shown, B-EA6 is taken up more rapidly and reaches […] of its maximum concentration after only 5 min and reached its maximum uptake within 15 min.

[2] = system: L1210 cells; experiment: Release of photosensitizer from preloaded L1210 cells; assay type: cell-based, murine; conditions: preloaded at 3 μg/ml for 1 hr, drug-free medium with 10% fetal bovine serum; compared with BPD-MA
Procedure: The kinetics of release of these drugs from L1210 cells was measured by preloading the cells at 3 μg/ml for 1 hr and then placing the cells in drug-free medium containing 10% fetal bovine serum. Remaining intracellular drug content was measured at various time points by lysing the cells and measuring fluorescence.

[3] = In vivo pharmacokinetics, drug content of tissues by fluorescence in tissue extracts; design: species or system DBA/2 mice; conditions: 4 mg/kg intravenous
Procedure: Either BPD-MA or B-EA6 was administered by intravenous injection into DBA/2 mice at a dose of 4 mg/kg using 3 mice per time point. The drug content of plasma, skin, liver and kidney was determined by fluorescence in the tissue extracts.

[4] = system: M1 rhabdomyosarcoma tumors; experiment: PDT bioassay in mouse tumor model, tumor-free on day 7; assay type: in vivo, DBA/2 mice
Procedure: The pharmacokinetics were also determined using an in vivo mouse tumor model. Groups of 10 DBA/2 mice containing M1 rhabdomyosarcoma tumors were injected intravenously with a liposomal formulation of BPD-MA at various dosages of 0.75–1.5 mg/kg. The tumors were irradiated with 690 nm laser light at 50 or 150 J/cm^2 at various times after injection.

[5] = system: L1210 cells; experiment: LD50 / photocytotoxicity on L1210 cells, 9 J/cm^2 broad spectrum light, MTT assay; assay type: cell-based, murine
Procedure: Either B-EA6 or BPD-MA was incubated for 1 hr with L1210 cells at a range of concentrations and exposed to 9 J/cm^2 broad spectrum light. This determination was made in the absence of serum and in the presence of 10% serum.
The ability of B-EA6 to exert a cytotoxic effect on L1210 cells in vitro was further tested by incubating the cells with B-EA6 at various concentrations for 1 hr in the absence of serum. After excess drug was removed, the cells were exposed to 9 J/cm^2 broad spectrum light (380–750 nm) and cell survival was determined by the MTT assay (Mosmann, T. et al. J Immunol Meth (1983) 65:55–63). The percentage of killed cells was calculated in reference to survival of cells exposed to light only.

[6] = system: splenocytes; conditions: 3 μg/ml, after an hour of incubation
Procedure: The ability of L1210 cells to accumulate B-EA6 was compared to the ability of splenocytes to do so. B-EA6 at 3 μg/ml was incubated with each cell type and the cell content of B-EA6 was determined by fluorescence in cell lysates.

[7] = system: M1 (rhabdomyosarcoma) tumor; experiment: Tumor selectivity of PDT in mice bearing subcutaneous M1 tumor; assay type: in vivo, DBA/2 mice; conditions: 0.75 mg/kg liposomal IV, 15 min, 50 J/cm^2 690 nm
Procedure: Mice were administered 0.75 mg/kg of B-EA6 in a liposomal formulation intravenously. After 15 min, a 1 cm area which included a 5 mm diameter tumor was exposed to 50 J/cm^2 of 70 mW light of 690 nm wavelength from an argon-pumped dye laser.

[8] = system: DNFB-induced ear swelling; experiment: Contact hypersensitivity (CHS) assay, DNFB ear swelling; assay type: in vivo, Balb/C mice; conditions: 1 mg/kg liposomal IV
Procedure: Balb/C mice (5–8 mice per group) were tested using the delayed skin photosensitivity assay also called the contact hypersensitivity (CHS) assay. The mice were painted in the flank with the sensitizing agent dinitrofluorobenzene (DNFB) and 5 days later, one ear is challenged with DNFB, while the other serves as a control. The swelling is an indicator of immune response. […] The swelling in both cases was only approximately 60% of the that shown in mice without treatment.

[9] = system: MHC Class I; experiment: Low-dose PDT, expression of cell surface antigens by peritoneal macrophages: MHC Class I; assay type: cell-based, murine; conditions: BPD-MA 2.5 ng/ml, B-EA6 0.5 ng/ml; 690 nm LED 5 J/cm^2, 24 hr later
Procedure: (§1) In an additional assay to determine immunomodulation, murine peritoneal macrophages were isolated, purified and activated by recombinant interferon-γ (100 U/ml). […] Expression levels of MHC I, MHC II, CD54, CD80 and CD86 were determined 24 hr later using FITC conjugated antibodies and a cell sorter. The results are shown in Table 4 for B-EA6 at 0.5 ng/ml in comparison to similar experiments using BPD-MA at 2.5 ng/ml. The results in the table are given as a percent of expression as compared to cells treated with light only. As shown, BPD-MA and B-EA6 were both able to reduce expression of MHC II, but not the remaining surface markers. Thus, although B-EA6 has advantageous pharmacokinetics, it retains the immunomodulatory activity of BPD-MA and other compounds of this group.

[10] = system: MHC Class II; experiment: Low-dose PDT, expression of cell surface antigens by peritoneal macrophages: MHC Class II; assay type: cell-based, murine; conditions: BPD-MA 2.5 ng/ml, B-EA6 0.5 ng/ml; 690 nm LED 5 J/cm^2, 24 hr later
Procedure: as §1

[11] = system: CD54 (ICAM-1); experiment: Low-dose PDT, expression of cell surface antigens by peritoneal macrophages: CD54; assay type: cell-based, murine; conditions: BPD-MA 2.5 ng/ml, B-EA6 0.5 ng/ml; 690 nm LED 5 J/cm^2, 24 hr later
Procedure: as §1

[12] = system: CD80 (B7-1); experiment: Low-dose PDT, expression of cell surface antigens by peritoneal macrophages: CD80; assay type: cell-based, murine; conditions: BPD-MA 2.5 ng/ml, B-EA6 0.5 ng/ml; 690 nm LED 5 J/cm^2, 24 hr later
Procedure: as §1

[13] = system: CD86 (B7-2); experiment: Low-dose PDT, expression of cell surface antigens by peritoneal macrophages: CD86; assay type: cell-based, murine; conditions: BPD-MA 2.5 ng/ml, B-EA6 0.5 ng/ml; 690 nm LED 5 J/cm^2, 24 hr later
Procedure: as §1

[14] = system: adjuvant-enhanced arthritis; experiment: Arthritis model, adjuvant-enhanced, PDT on days 0, 10, 20; assay type: in vivo, MRL-Ipr mice; conditions: 0.5 mg/kg liposomal IV, red light 80 J/cm^2 at 1 hr
Procedure: MRL-Ipr mice spontaneously develop arthritis; this was enhanced by intradermal injection of Freund's Adjuvant. Various numbers of MRL-Ipr mice were treated with PDT on days 0, 10, and 20 after injection of the adjuvant. […] The mice were observed and symptoms scored every 5 days for 30 days. The results are shown in FIG. 6 in comparison to mice similarly treated with BPD-MA and BPD-MB.

[15] = system: arterioles and venules; experiment: Mouse cremaster muscle model, effect on microvasculature; assay type: in vivo; conditions: 2 mg/kg IV, 25 J/cm^2 per 5 min
Procedure: The mouse cremaster muscle model was used. B-EA6 was administered intravenously at 2 mg/kg and starting at 5 and 15 min postinjection, surgically exposed arterioles and venules were irradiated with light at an intensity of 25 J/cm^2 per 5 min beginning at 5 min and 15 min after injection of the B-EA6. The vessels were measured as red blood column diameter as a percentage of controls.

In the case of `C=Cc1c(C)c2cc3nc(cc4[nH]c(cc5nc(cc1[nH]2)C1(C)C5=CC=C(C(=O)OC)C1C(=O)OC)c(C)c4CCC(=O)OCCO)C(CCC(=O)OCCO)=C3C` (centres unmarked) [B-EA6], the “time to maximum uptake” value [1] is reported as ≤ 15 min, the “maximum concentration reached (intracellular content)” value ([1]; 10^7/mL L1210 cells) is reported as 145.9 ng/10^6 cells and the “initial release from cells” value [2] is reported as “much more rapid”. The accumulation in skin ([3]; first 3 hr) was “does not”, the “T½ (15 min-3 hours) Kidney” value ([3]; kidney) was 48 min and the “T½ (15 min-3 hours) Liver” value ([3]; liver) was 36 min. For the same compound, the “T½ (15 min-3 hours) Muscle” value ([3]; muscle) was 666 min, the “T½ (15 min-3 hours) Plasma” value ([3]; plasma) was 36 min and the “accumulation in plasma, liver or kidney” value ([3]; relative to 15 min postinjection) was “neither BPD-MA nor B-EA6 accumulated”. For the same compound, the “T½ (15 min-3 hours) Skin” value ([3]; skin) was 114 min, the “T½ (15 min-3 hours) Spleen” value ([3]; spleen) was 48 min and the “Percent Tumor Free on Day 7” value ([4]; 0.75 mg/kg liposomal IV, light 15 min post IV, 50 J/cm^2 690 nm) was 50%. The “Percent Tumor Free on Day 7” value ([4]; 0.75 mg/kg liposomal IV, light 30 min post IV, 50 J/cm^2 690 nm) was 0%, the “Percent Tumor Free on Day 7” value ([4]; 1.0 mg/kg liposomal IV, light 15 min post IV, 50 J/cm^2 690 nm) was 90% and the “Percent Tumor Free on Day 7” value ([4]; 1.0 mg/kg liposomal IV, light 30 min post IV, 50 J/cm^2 690 nm) was 0%. For the same compound, the “Percent Tumor Free on Day 7” value ([4]; 1.5 mg/kg liposomal IV, light 180 min post IV, 150 J/cm^2 690 nm) was 0%, the “percentage of cells that did not survive” value ([5]; 15 ng/ml, no serum, 9 J/cm^2 light (380–750 nm), vs light only) was ~100% and the “LD50, 10% serum” value ([5]; L1210 cells, 1 hr incubation, 9 J/cm^2 broad spectrum light, 10% serum) was 19.7 ng/mL. For the same compound, the “percentage of killed cells” value ([5]; approximately 7 ng/ml, no serum, 9 J/cm^2 light (380–750 nm), vs light only) was 80%, the “cell content of B-EA6 accumulated” value [6] was “less than 20 ng/10^6 cells” and the “effect of PDT on surrounding normal skin” value [7] was “did not affect the surrounding normal skin”. For the same compound, the “effect of PDT on tumor” value [7] was “effectively eliminated the tumor”, the “ear swelling relative to mice without treatment” value ([8]; 15 J/cm^2 whole body light) was “approximately 60%” and the “ear swelling relative to mice without treatment” value ([8]; ambient light) was “approximately 60%”. For the same compound, the “MHC Class I expression, percent of cells treated with light only” value [9] was 100.4%, the “MHC Class II expression, percent of cells treated with light only” value [10] was 71.8% and the “CD54 (ICAM-1) expression, percent of cells treated with light only” value [11] was 106.9%. The “CD80 (B7-1) expression, percent of cells treated with light only” value [12] was 102.3%, the “CD86 (B7-2) expression, percent of cells treated with light only” value [13] was 92.2% and the “prevention of arthritis symptoms (incidence of clinical symptoms, bimaleolar ankle width)” value [14] was “effective in preventing the sequellae of adjuvant injection”. The vessel closure ([15]; irradiation started after 15 min) was “permanent closure” and the vessel closure ([15]; irradiation started at 5 min) was “transient vessel closure”.
